Source: the supplement of paper PMC10307832

What was measured:
Test in all cases: relative viability (nuclei count vs DMSO), 5 days (fraction); higher = more cells survive
[1] = compound: Cc1ccc(NC(=O)c2ccc(CN3CCN(C)CC3)cc2)cc1Nc1nccc(-c2cccnc2)n1 [Imatinib]
Outline: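 Only plates meeting two conditions passed: control CV below 25% and at least one doubling. Lung cancer cell lines, kept overnight at 37 °C in 1536-well plates, were pinned with five library-drug doses (not always all listed) √10 apart on vehicle-anchored plates and grown 5 days without medium change. A one-step fix, permeabilisation and Hoechst stain preceded 4× imaging and MetaXpress nuclear counting. Viability equals treated-well nuclei divided by vehicle-well nuclei, as the median over plates.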

[2] = compound: Cc1ccc(NC(=O)c2ccc(CN3CCN(C)CC3)cc2)cc1Nc1nccc(-c2cccnc2)n1 [Imatinib] + C[C@@H](Oc1cc(-c2cnn(C3CCNCC3)c2)cnc1N)c1c(Cl)ccc(F)c1Cl [Crizotinib] (partner 1 µM)
Outline: (§1)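 Cells from lung cancer lines were seeded into 1536-well plates and, one day later, dosed by pin tool. Treatments were either a single drug or a fixed dose of an anchor drug with five library-drug doses (not always all listed) in √10 steps. After 5 days, nuclei were stained in a one-step fixation (final 0.05% Triton X-100, 1% formaldehyde, 1 ug/ml Hoechst) and counted on 4× images, and relative viability is the treated-to-vehicle nuclei ratio, as the median of duplicate plates.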

[3] = compound: Cc1ccc(NC(=O)c2ccc(CN3CCN(C)CC3)cc2)cc1Nc1nccc(-c2cccnc2)n1 [Imatinib] + O=C(c1cc(Cc2n[nH]c(=O)c3ccccc23)ccc1F)N1CCN(C(=O)C2CC2)CC1 [Olaparib] (partner 8 µM)
Outline: as §1

[4] = compound: Cc1ccc(NC(=O)c2ccc(CN3CCN(C)CC3)cc2)cc1Nc1nccc(-c2cccnc2)n1 [Imatinib] + Nc1ncn([C@H]2C[C@H](O)[C@@H](CO)O2)c(=O)n1 [Decitabine] (partner 2 µM)
Outline: as §1

Row | Cell Line | relative viability ([1]; 0.02 µM) | relative viability ([1]; 0.2 µM) | relative viability ([1]; 0.6325 µM) | relative viability ([1]; 2 µM) | relative viability ([2]; first compound 0.02 µM) | relative viability ([2]; first compound 0.2 µM) | relative viability ([2]; first compound 0.6325 µM) | relative viability ([2]; first compound 2 µM) | relative viability ([3]; first compound 0.02 µM) | relative viability ([3]; first compound 0.06325 µM) | relative viability ([3]; first compound 0.2 µM) | relative viability ([3]; first compound 0.6325 µM) | relative viability ([3]; first compound 2 µM) | relative viability ([4]; first compound 0.02 µM) | relative viability ([4]; first compound 0.2 µM) | relative viability ([4]; first compound 0.6325 µM) | relative viability ([4]; first compound 2 µM) | relative viability ([1]; 0.06325 µM) | relative viability ([2]; first compound 0.06325 µM) | relative viability ([4]; first compound 0.06325 µM)
1 | HOP-62 | 1.15 | 1.2 | 0.999 | 0.943 | 0.87 | 0.984 | 1.06 | 1 | 0.408 | 0.478 | 0.456 | 0.498 | 0.372 | 0.199 | 0.25 | 0.232 | 0.211 | – | – | –
2 | IA-LM | 1.04 | 0.936 | 1.27 | 0.853 | 0.991 | 0.999 | 0.781 | 0.735 | 0.917 | 0.884 | 0.996 | 0.977 | 0.734 | – | – | – | – | 1.02 | 0.744 | –
3 | LC-2-ad | 1.04 | 0.986 | 0.973 | 1 | 0.458 | 0.502 | 0.434 | 0.384 | 0.756 | – | 0.751 | 0.761 | 0.694 | 0.816 | 0.948 | 0.824 | 0.759 | 0.715 | – | –
4 | LCLC-97TM1 | 1.08 | 1.01 | 1 | 1.03 | – | 0.358 | 0.34 | 0.407 | 0.539 | – | 0.269 | 0.419 | 0.33 | 0.208 | 0.253 | 0.216 | 0.226 | – | – | –
5 | LCLC-103H | 1.02 | 1.12 | 0.964 | – | 1.16 | – | 0.937 | – | 0.776 | 0.773 | 0.834 | 0.694 | – | 0.717 | 0.767 | 0.74 | 0.754 | 0.806 | – | 0.741
6 | LK-2 | 1.05 | 1.08 | 0.678 | 0.97 | 0.213 | 0.224 | 0.236 | 0.179 | 0.725 | 0.629 | 0.711 | – | 0.92 | 0.336 | 0.237 | – | 0.183 | 0.805 | – | 0.323
7 | LOU-NH91 | 0.968 | 0.966 | 0.964 | 0.874 | 0.747 | 0.767 | 0.677 | 0.769 | 1.04 | 0.982 | – | 0.879 | 0.894 | 0.793 | 0.795 | 0.813 | 0.767 | 1.09 | 0.778 | 0.814
8 | LU99A | 1.03 | 0.977 | 0.964 | 1.17 | 0.53 | 0.534 | 0.536 | 0.532 | 0.272 | 0.254 | 0.235 | 0.29 | 0.274 | 0.986 | 0.824 | 0.812 | 0.903 | 1.05 | 0.735 | 0.827
9 | LXF-289 | 1.06 | 1.1 | 1.01 | 0.976 | 0.881 | 0.876 | 0.814 | 0.777 | 1.1 | – | 1.35 | – | 1.13 | 0.387 | 0.407 | 0.391 | 0.405 | 0.998 | 0.826 | –
10 | NCI-H23 | 1.06 | 1.07 | 0.967 | 0.926 | 0.573 | 0.584 | 0.374 | 0.398 | 0.384 | 0.287 | 0.32 | 0.376 | 0.32 | 0.319 | 0.299 | 0.287 | 0.355 | 0.994 | 0.712 | 0.31
11 | NCI-H322M | 0.988 | 0.99 | 0.831 | 0.944 | 0.966 | – | 0.836 | – | 0.821 | 0.857 | 0.734 | 0.678 | 0.807 | 0.751 | 0.661 | 0.655 | 0.756 | 1.05 | 1.1 | 0.692
12 | NCI-H358 | – | 1.02 | 0.819 | 0.947 | 0.616 | 0.571 | 0.555 | 0.616 | 0.733 | 0.699 | 0.613 | 0.549 | 0.556 | 0.205 | 0.214 | 0.207 | 0.202 | 0.865 | – | 0.168
13 | NCI-H1299 | 1.05 | 1.07 | 1.02 | 1.04 | – | – | – | – | 0.987 | 0.948 | 1.01 | 0.983 | 0.97 | – | – | – | – | – | – | –
14 | NCI-H1395 | 1.13 | 0.897 | 0.976 | 0.938 | – | – | – | – | 0.455 | – | 0.405 | 0.428 | 0.409 | 0.754 | 0.656 | 0.678 | 0.69 | – | – | –
15 | NCI-H1563 | – | 1.11 | 0.963 | 0.976 | 0.823 | 0.863 | 0.884 | 0.825 | – | – | – | – | – | – | – | – | – | 0.912 | 0.884 | –
16 | NCI-H1648 | 0.744 | 0.699 | 0.421 | 0.618 | – | – | – | – | 0.958 | 0.633 | 0.971 | 0.307 | 0.776 | 0.442 | 0.448 | 0.393 | 0.456 | 0.627 | – | 0.478
17 | NCI-H1703 | 0.947 | 0.56 | 0.357 | 0.212 | 0.773 | 0.437 | 0.304 | 0.186 | 0.329 | 0.292 | 0.262 | 0.146 | 0.177 | – | – | – | – | 0.804 | 0.88 | –
18 | NCI-H1793 | 0.939 | 1.11 | 0.884 | 0.909 | – | – | – | – | 0.92 | – | 1.22 | 0.782 | 0.88 | 0.477 | 0.522 | 0.447 | 0.445 | – | – | –
19 | NCI-H2228 | – | 1.33 | – | 1.08 | 0.351 | 0.54 | 0.478 | 0.393 | 0.597 | 1.13 | 0.684 | 0.681 | 0.542 | – | – | – | – | 0.927 | 0.383 | –
20 | SW 900 | 0.806 | 0.941 | 0.896 | 0.855 | – | – | – | – | 0.909 | 1.08 | 1.05 | 0.711 | 0.731 | 0.37 | 0.499 | 0.468 | 0.411 | 0.712 | – | 0.467
